Source: US8383617B2, “Treatment of protein aggregation diseases” (priority 2007, dated 2013)
Where “and” joins values, the source holds several entries; their conditions need not be identical. Equal entries are not always repeated.

Columns and labels:
[1] = target: Synthetic beta-amyloid peptide 1-40 (Homo sapiens, UniProt P05067); test: Seprion assay screen for compounds that affect amyloid aggregation; type: biochemical; conditions: test compounds at 1 mM; for Relative aggregation compared to 'no compound' aggregation control: peptide 2.8 μg/ml, 30 min at 37° C., Seprion assay signal
Chain of Synthetic beta-amyloid peptide 1-40 (P05067 672-711): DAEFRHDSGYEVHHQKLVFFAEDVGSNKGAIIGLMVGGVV

[2] = target: Synthetic beta-amyloid peptide (Homo sapiens, UniProt P05067); test: PAGE and silver staining of aggregation reactions incubated with compounds; type: biochemical; conditions: peptide incubated in the presence of compound, FIG. 2
Chain of Synthetic beta-amyloid peptide (P05067 672-711): as above

beta-amyloid 1-40 [3] = target: T1, beta-amyloid 1-40 (Homo sapiens, UniProt P05067); test: Seprion assay of brain extracts of treated hAPP(751) mice, beta-amyloid 1-40; type: in vivo; conditions: SDS extracts of brain; daily oral from 2 to 6 months of age; fluphenazine 0.5 mg/Kg, trimipramine 25 mg/Kg; one value per animal
T1 construct: These mice develop increased amounts of beta-amyloid 1-40 and 1-42 in the brain; from tissue; host or cells: brain extracts of hAPP(751) transgenic mice
T1 sequence (P05067 672-711): as above

beta-amyloid 1-42 [4] = target: T2, beta-amyloid 1-42 (Homo sapiens, UniProt P05067); test: Seprion assay of brain extracts of treated hAPP(751) mice, beta-amyloid 1-42; type: in vivo; conditions: SDS extracts of brain; daily oral from 2 to 6 months of age; fluphenazine 0.5 mg/Kg, trimipramine 25 mg/Kg; one value per animal
T2 construct: ELISA and Seprion assay for amyloid — 1-40 and 1-42 on the SDS extracts; from tissue; host or cells: brain extracts of hAPP(751) transgenic mice
T2 sequence (P05067 672-713): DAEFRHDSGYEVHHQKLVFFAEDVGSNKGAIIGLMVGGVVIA

beta-amyloid 1-40 [5] = target: T1, beta-amyloid 1-40; test: ELISA of brain extracts of treated hAPP(751) mice, beta-amyloid 1-40; type: in vivo; conditions: daily oral from 2 to 6 months of age, fluphenazine 0.5 mg/Kg, trimipramine 25 mg/Kg, one value per animal
beta-amyloid 1-42 [6] = target: T2, beta-amyloid 1-42; test: ELISA of brain extracts of treated hAPP(751) mice, beta-amyloid 1-42; type: in vivo; conditions: daily oral from 2 to 6 months of age, fluphenazine 0.5 mg/Kg, trimipramine 25 mg/Kg, one value per animal
amyloid plaques = test: Immunohistochemistry of brains of treated hAPP(751) mice for amyloid plaques; type: in vivo; conditions: immunohistochemistry of brain; daily oral from 2 to 6 months of age; fluphenazine 0.5 mg/Kg, trimipramine 25 mg/Kg
[7] = Therapy of a patient with Gerstman-Straussler-Scheinker (GSS) syndrome; conditions: intraventricular, before the combination therapy

Molecule: nortriptyline
- Relative aggregation compared to 'no compound' aggregation control [1]: 189%

Molecule: CN1CCN(CC/C=C2/c3ccccc3Sc3ccc(S(=O)(=O)N(C)C)cc32)CC1 [Cis-thiothixene, cis-thiothixene]
- Relative aggregation compared to 'no compound' aggregation control [1]: 42%

Molecule: protryptyline [Protriptyline]
- Relative aggregation compared to 'no compound' aggregation control [1]: 184%

Molecule: CCN(CC)CCCC(C)Nc1c2ccc(Cl)cc2nc2ccc(OC)cc12 (centres unmarked) [quinacrine]
- effect on amyloid aggregation (in words) ([1]; Seprion assay screen): not effective

Molecule: c1ccc2c(c1)Nc1ccccc1S2 [Phenothiazine]
- Relative aggregation compared to 'no compound' aggregation control [1]: 80%

Molecule: CC(CN(C)C)CN1c2ccccc2CCc2ccccc21 (centres unmarked) [Trimipramine, trimipramine]
- Relative aggregation compared to 'no compound' aggregation control [1]: 259%
- inhibition of amyloid aggregation by PAGE and silver staining [2]: inhibit the aggregation of the amyloid
- Seprion assay beta-amyloid 1-40 OD420 nm (beta-amyloid 1-40 [3]): 0.11 OD420 nm and 0.58 OD420 nm and 0.14 OD420 nm and 0.10 OD420 nm
- Seprion assay beta-amyloid 1-42 OD420 nm (beta-amyloid 1-42 [4]): 0.26 OD420 nm and 2.26 OD420 nm and 0.98 OD420 nm and 0.64 OD420 nm
- ELISA beta-amyloid 1-40 ng (beta-amyloid 1-40 [5]; SDS extracts of brain): 169 ng and 101 ng and 195 ng and 89 ng
- ELISA beta-amyloid 1-40 ng (beta-amyloid 1-40 [5]; formic acid extracts of brain): 127 ng and 111 ng and 182 ng and 115 ng
- ELISA beta-amyloid 1-42 ng (beta-amyloid 1-42 [6]; SDS extracts of brain): 346 ng and 369 ng and 529 ng and 350 ng
- ELISA beta-amyloid 1-42 ng (beta-amyloid 1-42 [6]; formic acid extracts of brain): 174 ng and 185 ng and 311 ng and 213 ng
- plaque reduction (amyloid plaques): 15%

Molecule: CN(C)CCCN1c2ccccc2Sc2ccccc21.Cl [Promazine, promazine]
- Relative aggregation compared to 'no compound' aggregation control [1]: 44.5%
- inhibition of amyloid aggregation by PAGE and silver staining [2]: inhibit the aggregation of the amyloid

Molecule: OCCN1CCN(CCC=C2c3ccccc3Sc3ccc(C(F)(F)F)cc32)CC1 [Flupenthixol, cis-(Z)-flupenthixol]
- Relative aggregation compared to 'no compound' aggregation control [1]: 48.2%

Molecule: Clc1ccc2c(c1)C(N1CCNCC1)=Nc1ccccc1O2 [Amoxapine, amoxapine]
- Relative aggregation compared to 'no compound' aggregation control [1]: 119%

Molecule: pentosan polysulphate
- clinical effect [7]: had no effect

Molecule: OCCN1CCN(CCCN2c3ccccc3Sc3ccc(C(F)(F)F)cc32)CC1 [Fluphenazine, fluphenazine]
- Seprion assay beta-amyloid 1-40 OD420 nm (beta-amyloid 1-40 [3]): 0.18 OD420 nm and 0.09 OD420 nm
- Seprion assay beta-amyloid 1-42 OD420 nm (beta-amyloid 1-42 [4]): 0.93 OD420 nm and 0.68 OD420 nm
- ELISA beta-amyloid 1-40 ng (beta-amyloid 1-40 [5]; SDS extracts of brain): 88 ng and 51 ng
- ELISA beta-amyloid 1-40 ng (beta-amyloid 1-40 [5]; formic acid extracts of brain): 116 ng and 119 ng
- ELISA beta-amyloid 1-42 ng (beta-amyloid 1-42 [6]; SDS extracts of brain): 295 ng and 165 ng
- ELISA beta-amyloid 1-42 ng (beta-amyloid 1-42 [6]; formic acid extracts of brain): 143 ng and 197 ng
- plaque reduction (amyloid plaques): 23%
